Measured values taken from US20230085307A1, “PYRIDAZINONE COMPOUND AND HERBICIDE” (NISSAN CHEMICAL CORPORATION, priority 2019, published 2023).

Experiments:
chickweed [1] = assay: Test Example 4: herbicidal effect by soil treatment (Table 19, symbol P); format: in vivo, common chickweed (Stellaria media); settings: 320 g/ha
Summary of the method: (§1)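 Herbicidal effect was rated 3 weeks after treatment, using the scoring criteria of an earlier test. The compound, formulated as an emulsion and diluted in water to a set herbicide amount, had been sprayed uniformly on soil over freshly sown seeds. Growth took place in a greenhouse at 25° C. to 30° C.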

wild oat [2] = assay: Test Example 4: herbicidal effect by soil treatment (Table 19, symbol I); format: in vivo, wild oat (Avena fatua); settings: 320 g/ha
Summary of the method: as §1

persian speedwell [3] = assay: Test Example 4: herbicidal effect by soil treatment (Table 19, symbol R); format: in vivo, Persian speedwell (Veronica persica); settings: 320 g/ha
Summary of the method: as §1

barnyard grass [4] = assay: Test Example 3: herbicidal effect by foliage application, Wagner pot (Table 18, symbol H); format: in vivo, barnyard grass (Echinochloa crus-galli); settings: 320 g/ha
Summary of the method: (§2)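 Plants were sown in alluvial soil held under 0.1–0.5 cm standing water and grown 14 days in a greenhouse at 25–30 °C. An emulsifiable formulation, water-diluted to the set dose, was then sprayed onto the foliage, and effects were scored three weeks later using previously defined criteria.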

persian speedwell [5] = assay: Test Example 5: herbicidal effect by foliage application, plastic box (Table 20, symbol R); format: in vivo, Persian speedwell (Veronica persica); settings: foliage application, 320 g/ha, evaluated three weeks after application
Summary of the method: (§3)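 Foliar spray test: emulsion formulation diluted in water to a set application rate, sprayed onto 14-day-old plants raised in diluvial soil at 25° C to 30° C under glass. Both herbicidal effect and crop effect rated visually three weeks later.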

lambsquarters [6] = assay: Test Example 4: herbicidal effect by soil treatment (Table 19, symbol O); format: in vivo, lambsquarters (Chenopodium album); settings: 320 g/ha
Summary of the method: as §1

Italian ryegrass [7] = assay: Test Example 5: herbicidal effect by foliage application, plastic box (Table 20, symbol K); format: in vivo, Italian ryegrass (Lolium multiflorum); settings: foliage application, 320 g/ha, evaluated three weeks after application
Summary of the method: as §3

windgrass [8] = assay: Test Example 5: herbicidal effect by foliage application, plastic box (Table 20, symbol L); format: in vivo, windgrass (Apera spica-venti); settings: foliage application, 320 g/ha, evaluated three weeks after application
Summary of the method: as §3

redroot pigweed [9] = assay: Test Example 5: herbicidal effect by foliage application, plastic box (Table 20, symbol N); format: in vivo, redroot pigweed (Amaranthus retroflexus); settings: foliage application, 320 g/ha, evaluated three weeks after application
Summary of the method: as §3

velvetleaf [10] = assay: Test Example 4: herbicidal effect by soil treatment (Table 19, symbol M); format: in vivo, velvetleaf (Abutilon theophrasti); settings: 320 g/ha
Summary of the method: as §1

rice flat sedge = assay: Test Example 3: herbicidal effect by foliage application, Wagner pot (Table 18, symbol E); format: in vivo, rice flat sedge (Cyperus iria); settings: 320 g/ha
Summary of the method: as §2

redroot pigweed [11] = assay: Test Example 4: herbicidal effect by soil treatment (Table 19, symbol N); format: in vivo, redroot pigweed (Amaranthus retroflexus); settings: 320 g/ha
Summary of the method: as §1

blackgrass [12] = assay: Test Example 4: herbicidal effect by soil treatment (Table 19, symbol J); format: in vivo, blackgrass (Alopecurus myosuroides); settings: 320 g/ha
Summary of the method: as §1

green foxtail [13] = assay: Test Example 5: herbicidal effect by foliage application, plastic box (Table 20, symbol G); format: in vivo, green foxtail (Setaria viridis); settings: foliage application, 320 g/ha, evaluated three weeks after application
Summary of the method: as §3

velvetleaf [14] = assay: Test Example 5: herbicidal effect by foliage application, plastic box (Table 20, symbol M); format: in vivo, velvetleaf (Abutilon theophrasti); settings: foliage application, 320 g/ha, evaluated three weeks after application
Summary of the method: as §3

Chinese sprangletop = assay: Test Example 3: herbicidal effect by foliage application, Wagner pot (Table 18, symbol D); format: in vivo, chinese sprangletop (Leptochloa chinensis); settings: 320 g/ha
Summary of the method: as §2

southern crabgrass [15] = assay: Test Example 4: herbicidal effect by soil treatment (Table 19, symbol F); format: in vivo, southern crabgrass (Digitaria ciliaris); settings: 320 g/ha
Summary of the method: as §1

lambsquarters [16] = assay: Test Example 5: herbicidal effect by foliage application, plastic box (Table 20, symbol O); format: in vivo, lambsquarters (Chenopodium album); settings: foliage application, 320 g/ha, evaluated three weeks after application
Summary of the method: as §3

wild oat [17] = assay: Test Example 5: herbicidal effect by foliage application, plastic box (Table 20, symbol I); format: in vivo, wild oat (Avena fatua); settings: foliage application, 320 g/ha, evaluated three weeks after application
Summary of the method: as §3

green foxtail [18] = assay: Test Example 4: herbicidal effect by soil treatment (Table 19, symbol G); format: in vivo, green foxtail (Setaria viridis); settings: 320 g/ha
Summary of the method: as §1

Italian ryegrass [19] = assay: Test Example 4: herbicidal effect by soil treatment (Table 19, symbol K); format: in vivo, Italian ryegrass (Lolium multiflorum); settings: 320 g/ha
Summary of the method: as §1

southern crabgrass [20] = assay: Test Example 5: herbicidal effect by foliage application, plastic box (Table 20, symbol F); format: in vivo, southern crabgrass (Digitaria ciliaris); settings: foliage application, 320 g/ha, evaluated three weeks after application
Summary of the method: as §3

windgrass [21] = assay: Test Example 4: herbicidal effect by soil treatment (Table 19, symbol L); format: in vivo, windgrass (Apera spica-venti); settings: 320 g/ha
Summary of the method: as §1

barnyard grass [22] = assay: Test Example 5: herbicidal effect by foliage application, plastic box (Table 20, symbol H); format: in vivo, barnyard grass (Echinochloa crus-galli); settings: foliage application, 320 g/ha, evaluated three weeks after application
Summary of the method: as §3

chickweed [23] = assay: Test Example 5: herbicidal effect by foliage application, plastic box (Table 20, symbol P); format: in vivo, common chickweed (Stellaria media); settings: foliage application, 320 g/ha, evaluated three weeks after application
Summary of the method: as §3

barnyard grass [24] = assay: Test Example 4: herbicidal effect by soil treatment (Table 19, symbol H); format: in vivo, barnyard grass (Echinochloa crus-galli); settings: 320 g/ha
Summary of the method: as §1

blackgrass [25] = assay: Test Example 5: herbicidal effect by foliage application, plastic box (Table 20, symbol J); format: in vivo, blackgrass (Alopecurus myosuroides); settings: foliage application, 320 g/ha, evaluated three weeks after application
Summary of the method: as §3

## C#CCOc1ccc(-c2sc3ccc(F)cc3c2-c2c(OCC#C)c(C)nn(C)c2=O)cc1 [2-054]
Chickweed [1]
  herbicidal effect rating, P: chickweed: 0 (Herbicidal rate of 5% or less (almost no effect))
Wild oat [2]
  herbicidal effect rating, I: wild oat: 0 (Herbicidal rate of 5% or less (almost no effect))
Persian speedwell [3]
  herbicidal effect rating, R: persian speedwell: 3 (Herbicidal rate of 40% or more and less than 70%)
Barnyard grass [4]
  herbicidal effect on H (barnyard grass), rating 0-5: 4 (Herbicidal rate of 70% or more and less than 90%)
Persian speedwell [5]
  herbicidal effect on R: persian speedwell: 5 (Herbicidal rate of 90% or more (almost completely withered))
Lambsquarters [6]
  herbicidal effect rating, O: lambsquarters: 0 (Herbicidal rate of 5% or less (almost no effect))
Italian ryegrass [7]
  herbicidal effect on K: Italian ryegrass: 0 (Herbicidal rate of 5% or less (almost no effect))
Windgrass [8]
  herbicidal effect on L: windgrass: 0 (Herbicidal rate of 5% or less (almost no effect))
Redroot pigweed [9]
  herbicidal effect on N: redroot pigweed: 4 (Herbicidal rate of 70% or more and less than 90%)
Velvetleaf [10]
  herbicidal effect rating, M: velvetleaf: 0 (Herbicidal rate of 5% or less (almost no effect))
Rice flat sedge
  herbicidal effect on E (rice flat sedge), rating 0-5: 3 (Herbicidal rate of 40% or more and less than 70%)
Redroot pigweed [11]
  herbicidal effect rating, N: redroot pigweed: 3 (Herbicidal rate of 40% or more and less than 70%)
Blackgrass [12]
  herbicidal effect rating, J: blackgrass: 0 (Herbicidal rate of 5% or less (almost no effect))
Green foxtail [13]
  herbicidal effect on G: green foxtail: 3 (Herbicidal rate of 40% or more and less than 70%)
Velvetleaf [14]
  herbicidal effect on M: velvetleaf: 4 (Herbicidal rate of 70% or more and less than 90%)
Chinese sprangletop
  herbicidal effect on D (Chinese sprangletop), rating 0-5: 5 (Herbicidal rate of 90% or more (almost completely withered))
Southern crabgrass [15]
  herbicidal effect rating, F: southern crabgrass: 0 (Herbicidal rate of 5% or less (almost no effect))
Lambsquarters [16]
  herbicidal effect on O: lambsquarters: 3 (Herbicidal rate of 40% or more and less than 70%)
Wild oat [17]
  herbicidal effect on I: wild oat: 0 (Herbicidal rate of 5% or less (almost no effect))
Green foxtail [18]
  herbicidal effect rating, G: green foxtail: 0 (Herbicidal rate of 5% or less (almost no effect))
Italian ryegrass [19]
  herbicidal effect rating, K: Italian ryegrass: 0 (Herbicidal rate of 5% or less (almost no effect))
Southern crabgrass [20]
  herbicidal effect on F: southern crabgrass: 0 (Herbicidal rate of 5% or less (almost no effect))
Windgrass [21]
  herbicidal effect rating, L: windgrass: 0 (Herbicidal rate of 5% or less (almost no effect))
Barnyard grass [22]
  herbicidal effect on H: barnyard grass: 3 (Herbicidal rate of 40% or more and less than 70%)
Chickweed [23]
  herbicidal effect on P: chickweed: 5 (Herbicidal rate of 90% or more (almost completely withered))
Barnyard grass [24]
  herbicidal effect rating, H: barnyard grass: 0 (Herbicidal rate of 5% or less (almost no effect))
Blackgrass [25]
  herbicidal effect on J: blackgrass: 0 (Herbicidal rate of 5% or less (almost no effect))
